Test results from patent publication US9540355B2, “Irciniastatin analogues” (priority 2013, dated 2017).

Columns and labels:
[1] = tested on: T-47D; details: breast cancer T-47D; read-out: LC50 (the source's name); cited from earlier work
[2] = tested on: RPMI-8226; details: leukemia RPMI-8226; read-out: LC50 (the source's name); cited from earlier work
[3] = tested on: MOLT-4; details: leukemia MOLT-4; read-out: LC50 (the source's name); cited from earlier work
[4] = tested on: BXPC-3; details: pancreas BXPC-3; cited from earlier work
[5] = tested on: HCC-2998; details: colon cancer HCC-2998; read-out: LC50 (the source's name); cited from earlier work
[6] = tested on: K-562; details: leukemia K-562; read-out: LC50 (the source's name); cited from earlier work
[7] = tested on: NCI-H460; details: lung NCI-H460; cited from earlier work
[8] = tested on: MDA-MB-435; details: breast cancer MDA-MB-435; read-out: LC50 (the source's name); cited from earlier work
[9] = tested on: SW-620; details: colon cancer SW-620; read-out: LC50 (the source's name); cited from earlier work
[10] = tested on: several solid tumor cell lines; details: cited from earlier work
[11] = tested on: SK-MEL-5; details: melanoma SK-MEL-5; read-out: LC50 (the source's name); cited from earlier work
[12] = tested on: CCRF-CEM; details: leukemia CCRF-CEM; cited from earlier work
[13] = tested on: MALME-3M; details: melanoma MALME-3M; read-out: LC50 (the source's name); cited from earlier work
[14] = tested on: IMR-90 human fibroblast cells; assay: IMR-90 cytotoxicity assay; format: cell-based; details: IMR-90, 72 h, quiescent non-dividing cells, 0.1% FBS, 3 days incubation, read-out: IC50 (nM) Quiescent IMP-90
From the text: IMR-90 Cytotoxicity Assay.
To evaluate the effect of compounds of the invention on non-proliferating normal cells, an in vitro cytotoxicity assay developed to distinguish between true antiproliferative activity and general cellular cytotoxicity unrelated to proliferation was used. Rudolph-Owen L A, Salvato K, Cheng C, Wu J, Towle M J and Littlefield B A: A 96-well plate cell-based assay to quantify undesired cytotoxic effects against quiescent non-dividing cells. Proc Amer Assoc Cancer Res 45: 264-265, 2004. In brief, IMR-90 human fibroblast cells, obtained from ATCC, were grown for 4 days to confluency in MEM containing 10% FBS and supplemented with L-glutamine, penicillin/streptomycin. After washing, the medium was replaced with complete MEM containing 0.1% FBS and the cells were cultured for 3 additional days to achieve complete quiescence. A compound of the invention or vehicle control was then added in the continued presence of 0.1% FBS, followed by incubation for 3 days at 37° C. Cell viability was assessed by the measurement of cellular ATPlevels using CellTiter-Glo reagent (Promega).

[15] = tested on: NCI/ADR-RES; details: breast cancer NCI/ADR-RES; read-out: LC50 (the source's name); cited from earlier work
[16] = tested on: HT29; details: colon cancer HT29; read-out: LC50 (the source's name); cited from earlier work
[17] = tested on: panel of 60 human cancer cell lines; details: cited from earlier work
[18] = tested on: UACC-257; details: melanoma UACC-257; read-out: LC50 (the source's name); cited from earlier work
[19] = tested on: LOX IMVI; details: melanoma LOX IMVI; read-out: LC50 (the source's name); cited from earlier work
[20] = tested on: HS 578T; details: breast cancer HS 578T; cited from earlier work
[21] = tested on: KM20L2; details: colon KM20L2; cited from earlier work
[22] = tested on: P388 murine lymphocytic leukemia cell line; details: cited from earlier work
[23] = tested on: SF-268; details: CNS SF-268; cited from earlier work
[24] = tested on: MCF-7; details: breast MCF-7; cited from earlier work
[25] = tested on: SK-MEL-2; details: melanoma SK-MEL-2; read-out: LC50 (the source's name); cited from earlier work
[26] = tested on: MCF7; details: breast cancer MCF7; read-out: LC50 (the source's name); cited from earlier work
[27] = tested on: SR; details: leukemia SR; read-out: LC50 (the source's name); cited from earlier work
[28] = tested on: HCT-116; details: colon cancer HCT-116; read-out: LC50 (the source's name); cited from earlier work
[29] = tested on: human umbilical vein endothelial cells (HUVEC); details: normal endothelial HUVEC; cited from earlier work
[30] = tested on: DU-145; details: prostate DU-145; cited from earlier work
[31] = tested on: UACC-62; details: melanoma UACC-62; read-out: LC50 (the source's name); cited from earlier work

Structure (SMILES): C=C(C)C[C@H](OC)[C@H](O)C(=O)N[C@@H](OC)[C@@H]1C[C@@H](O)C(C)(C)[C@@H](C[C@H](O)[C@@H](C)[C@H]2Cc3c(C)c(O)cc(O)c3C(=O)O2)O1 [Irciniastatin A, (+)-Irciniastatin A]
- CC50 [1]: 13.6 µM
- CC50 [2]: > 25 µM
- CC50 [3]: > 25 µM
- Growth Inhibition of Cancer Cell Lines (GI50) [4]: 3.8 ng/mL
- CC50 [5]: 0.36 µM
- CC50 [6]: > 25 µM
- Growth Inhibition of Cancer Cell Lines (GI50) [7]: <0.1 ng/mL
- CC50 [8]: < 0.0025 µM
- CC50 [9]: > 25 µM
- hollow fiber assay overall score ([10]; compounds considered active score 20 or higher): 34
- hollow fiber assay score against intraperitoneal fibers ([10]; intraperitoneal fibers): 28
- hollow fiber assay score against subcutaneous fibers ([10]; subcutaneous fibers): 6
- CC50 [11]: < 0.0025 µM
- LC50 [12]: > 25 µM
- CC50 [13]: < 0.0025 µM
- IC50 [14]: 27 nM
- CC50 [15]: 19 µM
- CC50 [16]: > 25 µM
- activity differential as compared to other cell lines within their respective subsets ([17]; MDA-MB-35, SK-MEL-28, UACC-62, HCT-116 versus other lines of the subset): greater than 10,000 fold
- activities ([17]; MDA-MB-35 breast cancer, SK-MEL-28 and UACC-62 melanoma, HCT-116 colon cancer cell lines): low nanomolar range
- CC50 [18]: > 25 µM
- CC50 [19]: > 25 µM
- LC50 [20]: > 25 µM
- Growth Inhibition of Cancer Cell Lines (GI50) [21]: 2.7 ng/mL
- Growth Inhibition of Cancer Cell Lines (GI50) [22]: 4.13 ng/mL
- Growth Inhibition of Cancer Cell Lines (GI50) [23]: 3.4 ng/mL
- Growth Inhibition of Cancer Cell Lines (GI50) [24]: 3.2 ng/mL
- CC50 [25]: > 25 µM
- CC50 [26]: > 25 µM
- CC50 [27]: > 25 µM
- CC50 [28]: < 0.0025 µM
- Growth Inhibition of Cancer Cell Lines (GI50) [29]: <0.5 ng/mL
- Growth Inhibition of Cancer Cell Lines (GI50) [30]: 2.4 ng/mL
- CC50 [31]: < 0.0025 µM
